{
  "source": "paper PMC8773213",
  "about": "“In Vitro Anticancer Activity and Mechanism of Action of an Aziridinyl Galactopyranoside” (Biomedicines, 2021)",
  "key": {"[1]": {"tested_on": "UV4 cells (mutated in ERCC1, NER deficient)", "experiment": "MTT cell viability assay, UV4 cells", "type": "cell-based, Chinese hamster", "method": "(§1) Exponentially growing cells were seeded in 96-well plates and allowed to attach and grow for 24 h. The cells were then treated with increasing concentrations of the tested drugs. At the end of the treatment period, cell viability was measured with the MTT assay or the resazurin assay, two widely used techniques.\n(§2) In the case of the MTT assay, this technique detects viable cells using the ability of these cells to reduce the yellow tetrazolium MTT to an insoluble colored formazan product. Subsequently, this product was solubilized and analyzed by spectrophotometry. Dead cells cannot reduce the MTT into the colored formazan product. Briefly, 24 h after plating, cells were treated with the tested compounds for 48 h; except in experiments with DNA repair-proficient and -deficient cell lines, in which cells were only exposed for 24 h to drugs and allowed to grow for an additional 48 h in drug-free medium to allow them to repair possible DNA damage induced by the tested drugs. […] Finally, plates were incubated overnight at 37 °C and optical densities were measured at 540 nm using an absorbance spectrophotometer microplate reader.\n(§3) In both assays, cell viability was expressed as percentage compared to untreated cells. Results were expressed as the means ± standard error of the mean (SEM). […]"}, "[2]": {"tested_on": "AA8 cells", "experiment": "Comet assay (DNA damage)", "type": "cell-based, Chinese hamster", "conditions": "4 h", "from_the_text": "The single cell gel electrophoresis assay, also known as comet assay, is a widely used technique for the study of levels of damage in cellular DNA. In this assay, individual cells embedded in agarose are lysed, electrophoresed, stained with a fluorescent dye and examined under an epifluorescence microscope. […] The quantity of DNA present in the tail is indicative of DNA damage. This assay has been described in detail by Singh et al.. We followed this protocol with minor modifications previously described. Briefly, standard slides were immersed in 1% normal melting agarose at 55 °C, left to allow the agarose to solidify and kept at 4 °C until use. Cells were seeded in 6-well plates, allowed to grow for 24 h and then cells were exposed to AzGalp or CTP (positive control) for 4 h. At the end of the treatment, cells were harvested by trypsinization, washed with PBS and resuspended in PBS at a concentration of approximately 1 million cells/mL; 10 µL cell suspension was mixed with 85 μL of low-melting agarose (LMA) at 37 °C and the mixture was quickly added to the slides with the first layer of agarose, spread using a coverslip and kept at 4 °C for 8 min to allow the LMA to solidify. The coverslips were then removed and another layer of 100 μL of LMA at 37 °C was added, covered with a coverslip and allowed to solidify at 4 °C for 8 min. After removing the coverslips, the slides were incubated in the dark for 1 h at 4 °C in a lysis buffer (pH 10.0) containing 0.25 M NaOH, 10% DMSO, 1% Triton X-100, 10 mM Tris-HCl, 100 mM Na2-EDTA and 2.5 M NaCl. Next, alkaline denaturation with electrophoretic buffer (300 mM NaOH and 1 mM Na2-EDTA) was carried out in an electrophoresis chamber for 20 min and then electrophoresis was performed at 1 V/cm for 20 min. […] DNA damage levels were quantified for each cell and expressed as percent of DNA in the tail and as the tail moment (defined as the product of the tail length and the fraction of total DNA in the tail). The results were averaged from two independent experiments and expressed as mean ± SEM."}, "[3]": {"tested_on": "A549 cells", "type": "cell-based", "conditions": "A549, 48 h, antioxidant added 1 h before; MTT", "method": "as §1\nIn the case of the MTT assay, this technique detects viable cells using the ability of these cells to reduce the yellow tetrazolium MTT to an insoluble colored formazan product. Subsequently, this product was solubilized and analyzed by spectrophotometry. Dead cells cannot reduce the MTT into the colored formazan product. Briefly, 24 h after plating, cells were treated with the tested compounds for 48 h; except in experiments with DNA repair-proficient and -deficient cell lines, in which cells were only exposed for 24 h to drugs and allowed to grow for an additional 48 h in drug-free medium to allow them to repair possible DNA damage induced by the tested drugs. After the treatment period, the medium was removed, the cells were washed once with PBS and 125 μL MTT (1 mg/mL in medium) was added to each well. Plates were incubated for 2–4 h and then 80 μL 20% SDS in 0.02 M HCl was added to each well. Finally, plates were incubated overnight at 37 °C and optical densities were measured at 540 nm using an absorbance spectrophotometer microplate reader.\n(§4) In both assays, cell viability was expressed as percentage compared to untreated cells. Results were expressed as the means ± standard error of the mean (SEM). All data are from at least three independent experiments."}, "[4]": {"tested_on": "A549 lung cancer cells", "experiment": "MTT cytotoxicity of combinations, A549", "type": "cell-based", "conditions": "48 h", "method": "as §1, §2, §3"}, "[5]": {"tested_on": "MRC-5 (Human lung non-malignant cells)", "experiment": "Resazurin cell viability assay, MRC-5", "type": "cell-based", "conditions": "MRC5, 72 h, read-out: IC50 (Mean ± SEM, µM), MRC-5", "method": "as §1\n(§5) The resazurin assay is a redox-based colorimetric/fluorometric technique based on the ability of viable cells to reduce the blue compound resazurin into the pink, fluorescent and soluble product resorufin. The amount of resorufin produced is generally proportional to the number of living cells. In this assay, 24 h after seeding, cells were exposed to the tested drugs for 72 h. Then 100 μL resazurin in medium was added to each well (final concentration of 10 μg/mL) and, one hour later the fluorescence intensity was measured at 530/590 nm (excitation/emission) using a fluorescence microplate reader.\nas §4"}, "[6]": {"tested_on": "HepG2 (Human hepatocellular carcinoma cells)", "experiment": "Resazurin cell viability assay, HepG2", "type": "cell-based", "conditions": "72 h, read-out: IC50 (Mean ± SEM, µM), HepG2", "method": "as §1, §5, §4"}, "[7]": {"tested_on": "HL-60 (Human acute promyelocytic leukemia cells)", "experiment": "Resazurin cell viability assay, HL-60", "type": "cell-based", "conditions": "72 h, read-out: IC50 (Mean ± SEM, µM), HL-60", "method": "as §1, §5, §4"}, "[8]": {"tested_on": "PC3 (Human prostate cancer cells)", "experiment": "Resazurin cell viability assay, PC3", "type": "cell-based", "conditions": "72 h, read-out: IC50 (Mean ± SEM, µM), PC3", "method": "as §1, §5, §4"}, "[9]": {"tested_on": "BJ-hTERT (hTERT-immortalized skin non-malignant BJ cells)", "experiment": "Resazurin cell viability assay, BJ-hTERT", "type": "cell-based", "conditions": "Homo sapiens, 72 h, read-out: IC50 (Mean ± SEM, µM), BJ-hTERT", "method": "as §1, §5, §4"}, "[10]": {"tested_on": "BJ-SV40T (SV40T-transformed BJ-hTERT cells)", "experiment": "Resazurin cell viability assay, BJ-SV40T", "type": "cell-based", "conditions": "Homo sapiens, 72 h, read-out: IC50 (Mean ± SEM, µM), BJ-SV40T", "method": "as §1, §5, §4"}},
  "data": [
    {"smiles": "Cc1ccc(S(=O)(=O)N2CC2(C)CO[C@@H]2O[C@@H]3CO[C@H](c4ccccc4)O[C@@H]3[C@H](OCc3ccccc3)[C@H]2OCc2ccccc2)cc1", "note": "(stereo partly drawn) [AzGalp, 2-methyl-2,3-[N-(4-methylbenzenesulfonyl)imino]propyl 2,3-di-O-benzyl-4,6-O-(S)-benzylidene-β-D-galactopyranoside]", "values": [
      {"measurement": "IC50", "setting": "[1]; Cricetulus griseus, UV4, 24 h exposure, then 48 h in drug-free medium, read-out: IC50 (means ± SEM), UV4 cells", "value": "58.6 ± 9.3", "unit": "µM"},
      {"measurement": "Sensitivity of NER-deficient cells relative to NER-proficient cells", "setting": "[1]; UV4 and UV5 versus AA8", "value": "approximately six times more sensitive"},
      {"measurement": "Level of DNA damage in comet assay", "setting": "[2]; 50 µM AzGalp versus 10 µM CPT", "value": "lower than that of the DNA-damaging agent CPT"},
      {"measurement": "Cells with higher levels of DNA damage than untreated cells", "setting": "[2]; 50 µM", "value": "approximately 30%"},
      {"measurement": "Effect of MnTMPyP on cytotoxicity", "setting": "[3]", "value": "Neither MnTMPyP nor catalase prevented the cytotoxicity"},
      {"measurement": "Effect of NAC on cytotoxicity", "setting": "[3]", "value": "slightly prevented cytotoxic activity, it was not statistically significant"},
      {"measurement": "Effect of catalase on cytotoxicity", "setting": "[3]", "value": "Neither MnTMPyP nor catalase prevented the cytotoxicity"},
      {"measurement": "Cytotoxicity of combination with 5-FU, cancer cells", "setting": "[4]; 100 μM AzGalp + 10 μM 5-FU", "value": "killed more cancer cells than when these drugs were administered individually"},
      {"measurement": "Cytotoxicity of combination with oxaliplatin, cancer cells", "setting": "[4]; 100 μM AzGalp + 10 μM oxaliplatin", "value": "killed more cancer cells than when these drugs were administered individually"},
      {"measurement": "IC50", "setting": "[5]", "value": "341 ± 85", "unit": "µM"},
      {"measurement": "IC50", "setting": "[6]", "value": "122 ± 12.4", "unit": "µM"},
      {"measurement": "IC50", "setting": "[7]", "value": "11.1 ± 0.9", "unit": "µM"},
      {"measurement": "IC50", "setting": "[8]", "value": "401 ± 14.8", "unit": "µM"},
      {"measurement": "IC50", "setting": "[9]", "value": "209 ± 24.2", "unit": "µM"},
      {"measurement": "IC50", "setting": "[10]", "value": "143 ± 8.1", "unit": "µM"}
    ]}
  ]
}
